Experimental data: US20260184675A1, “CHIRAL ISOMERIC SULFITE COMPOUND AND APPLICATION THEREOF” (Chengdu Hanova BioSciences Co., Ltd, priority 2024, published 2026)

How the values were obtained:
[1] = test system: pest eggs of Tetranychus cinnabarinus; assay: Effect on hatching of pest eggs of Tetranychus cinnabarinus, leaf disc method; format: in vivo; settings: for Hatching rate (%): 7 days after insecticide delivery; for inhibitory effect on the hatching of pest eggs of Tetranychus cinnabarinus (in words): 1 ppm
Method: (§1) • (1) Preparation of leaf discs containing eggs: 20 female adult mites of Tetranychus cinnabarinus were transferred onto leaf discs of Vicia faba with a diameter of 2.0 cm (with wetted filter paper at the bottom), then covered it with a lidded culture dish and cultivated under moisturizing conditions, the adult mites were removed within 36 hours and microscopic examination and counting were performed on leaf discs containing eggs. • (2) Investigation of egg population base: Before pesticide soaking, a microscopic examination was conducted on the egg basic number of each leaf disc, with 2 replicates set for each treatment. • (3) Pesticide soaking treatment: The leaf butterflies loaded with mite eggs were soaked in clear water and sulfite compounds for 10 seconds, respectively, then taken out and cultivated under moisturizing conditions. Each treatment should be repeated for no less than 3 times. • (4) Cultivation and observation: The […] were cultivated under normal conditions. Five days after insecticide delivery, the hatching status of mite eggs was investigated. • Note: The temperature and humidity conditions of the constant temperature and humidity incubator after the treatment should be controlled so as to avoid excessive temperature differences, which may cause generation and dripping of condensate water in the culture dish, resulting in abnormal death of eggs due to soaking in water; it is also necessary to ensure sufficient strong ambient light, without directing irradiating the leaves. • (5) Survey of Results: The experimental materials of each treatment group were regularly hydrated and moisturized, and the hatching of eggs was observed. On the 7th day after insecticide delivery, the number of hatched eggs for each treatment was recorded, and the survey of results was recorded in the original notebook. According to the experimental requirements and characteristics of agents, the survey time can be shortened or extended. • 1) Surveying and recording the number of hatched eggs for each treatment. • 2) Photographing and recording whether there was any pesticide damage to the leaf discs of Vicia faba. • 3) Recording the developmental status of experimental mite eggs, behavior status of nymph mites, including abnormal phenomena such as delayed or stopped development of mite eggs, difficulty in breaking hull for nymph mites, or painful struggles after hatching, etc. • (6) Calculation method: Based on the survey data, the prevention and control effect of each treatment was calculated according to the following formula, and the calculation results were kept to two decimal places. [formula] [formula] [table]

[2] = test system: Magnaporthe grisea; format: cell-based; settings: 100 ppm; for Average antifungal rate (%) / Antifungal rate of Magnaporthe grisea (%), Replicate 1 / Antifungal rate of Magnaporthe grisea (%), Replicate 2 / Antifungal rate of Magnaporthe grisea (%), Replicate 3: 96-well plate; for Average antifungal rate (%): average of 3 replicates
[3] = test system: eggs of Tetranychus urticae; assay: Effect on hatching of eggs of Tetranychus urticae, leaf disc method; format: in vivo; settings: 5 ppm; for Hatching rate (%): 5 days after insecticide delivery
Method: as §1, with “extended.” for “extended. • 1) Surveying and recording the number of hatched eggs for each treatment. • 2) Photographing and recording whether there was any pesticide damage to the leaf discs of Vicia faba. • 3) Recording the developmental status of experimental mite eggs, behavior status of nymph mites, including abnormal phenomena such as delayed or stopped development of mite eggs, difficulty in breaking hull for nymph mites, or painful struggles after hatching, etc. • (6) Calculation method: Based on the survey data, the prevention and control effect of each treatment was calculated according to the following formula, and the calculation results were kept to two decimal places. [formula] [formula] [table]”
(§2) • 1) Surveying and recording the number of hatched eggs for each treatment. • 2) Photographing and recording whether there was any pesticide damage to the leaf discs of Vicia faba. • 3) Recording the developmental status of experimental mite eggs, behavior status of nymph mites, including abnormal phenomena such as delayed or stopped development of mite eggs, difficulty in breaking hull for nymph mites, or painful struggles after hatching, etc. • (6) Calculation method: Based on the survey data, the prevention and control effect of each treatment was calculated according to the following formula, and the calculation results were kept to two decimal places.
(§3) This test adopted the method in Test Example 1 of technical section, mainly used leaf disc method to explore the inhibitory effect on hatching of eggs of Tetranychus urticae by compounds 1-(S,S), 1-(S,R), 1-(R,R), 1-(R,S), 1′-(S,S), 1′-(S,R), 1′-(R,R), 1′-(R,S), compound 1, compound 1′, S-10, R-10, S-10′, R-10′, compound 10, compound 10′, compound 19-(S,S), 19-(S,R), 19-(R,R), 19-(R,S), 19′-(S,S), 19′-(S,R), 19′-(R,R), 19′-(R,S), compound 19, and compound 19′. The concentration of all compounds was 5 ppm.

[4] = test system: eggs of Thrips; assay: Effect on hatching of eggs of Thrips, leaf disc method; format: in vivo; settings: 100 ppm; for Hatching rate (%): 5 days after insecticide delivery
Method: as §1, with “extended.” for “extended. • 1) Surveying and recording the number of hatched eggs for each treatment. • 2) Photographing and recording whether there was any pesticide damage to the leaf discs of Vicia faba. • 3) Recording the developmental status of experimental mite eggs, behavior status of nymph mites, including abnormal phenomena such as delayed or stopped development of mite eggs, difficulty in breaking hull for nymph mites, or painful struggles after hatching, etc. • (6) Calculation method: Based on the survey data, the prevention and control effect of each treatment was calculated according to the following formula, and the calculation results were kept to two decimal places. [formula] [formula] [table]”
as §2
as §3, with “Thrips” for “Tetranychus urticae”, “by” for “by compounds”, “100” for “5”

[5] = Replicate 1, listed as 19′-(S, S)
[6] = Replicate 2, listed as 19′-(S, S)
[7] = Replicate 3, listed as 19′-(S, S)
[8] = Replicate 1, listed as 1-(S, S)
[9] = Replicate 2, listed as 1-(S, S)
[10] = Replicate 3, listed as 1-(S, S)

| SMILES | Hatching rate (%) ([1]; 0.25 mg/L, Replicate 1) | Hatching rate (%) ([1]; 0.25 mg/L, Replicate 2) | Number of hatched larvae 7 days after insecticide delivery ([1]; 0.25 mg/L, Replicate 1) | Number of hatched larvae 7 days after insecticide delivery ([1]; 0.25 mg/L, Replicate 2) | Hatching rate (%) ([1]; 0.5 mg/L, Replicate 1) | Hatching rate (%) ([1]; 0.5 mg/L, Replicate 2) | Number of hatched larvae 7 days after insecticide delivery ([1]; 0.5 mg/L, Replicate 1) | Number of hatched larvae 7 days after insecticide delivery ([1]; 0.5 mg/L, Replicate 2) | Hatching rate (%) ([1]; 1 mg/L, Replicate 1) | Hatching rate (%) ([1]; 1 mg/L, Replicate 2) | Number of hatched larvae 7 days after insecticide delivery ([1]; 1 mg/L, Replicate 1) | Number of hatched larvae 7 days after insecticide delivery ([1]; 1 mg/L, Replicate 2) | inhibitory effect on the hatching of pest eggs of Tetranychus cinnabarinus (in words) [1] | inhibitory rate against Magnaporthe grisea (in words) [2] | Average antifungal rate (%) [2] | Antifungal rate of Magnaporthe grisea (%), Replicate 1 [2] | Antifungal rate of Magnaporthe grisea (%), Replicate 2 [2] | Antifungal rate of Magnaporthe grisea (%), Replicate 3 [2] | inhibitory activity on the hatching of eggs of Tetranychus urticae (in words) [3] | inhibitory activity on the hatching of eggs of Thrips (in words) [4] | also measured |
| --- | --- | --- | --- | --- | --- | --- | --- | --- | --- | --- | --- | --- | --- | --- | --- | --- | --- | --- | --- | --- | --- |
| CC[C@@H](COS(=O)OCCF)Oc1ccc(Cl)cc1Cl (stereo partly drawn) [19′-(S,S)] | 40.82% | 39.73% | 29 | 44 | 5.71% | 3.57% | 66 | 54 | 0.00% | 0.00% | 56 | 49 | excellent inhibitory effects | strong inhibitory rate | 97.09% | 97.41% | 96.58% | 97.29% | strong inhibitory activities | strong inhibitory activities | Hatching rate (%) [3, 5]: 0.00%; Hatching rate (%) [3, 6]: 0.00%; Number of hatched larvae 5 days after insecticide delivery [3, 5]: 0; Number of hatched larvae 5 days after insecticide delivery [3, 6]: 0; Hatching rate (%) [4, 5]: 0.00%; Hatching rate (%) [4, 6]: 0.00%; Hatching rate (%) [4, 7]: 0.00%; Number of hatched larvae 5 days after insecticide delivery [4, 5]: 0; Number of hatched larvae 5 days after insecticide delivery [4, 6]: 0; Number of hatched larvae 5 days after insecticide delivery [4, 7]: 0 |
| CCC(COS(=O)OCCF)Oc1ccc(Cl)cc1Cl (stereo not drawn) [Compound 19′] | 70.21% | 73.24% | 14 | 19 | 34.72% | 34.43% | 47 | 40 | 1.89% | 0.00% | 52 | 63 | excellent inhibitory effects | strong inhibitory rate | 92.59% | 91.33% | 93.48% | 92.95% | strong inhibitory activities | strong inhibitory activities | Hatching rate (%) ([3]; Replicate 1): 1.14%; Hatching rate (%) ([3]; Replicate 2): 1.92%; Number of hatched larvae 5 days after insecticide delivery ([3]; Replicate 1): 1; Number of hatched larvae 5 days after insecticide delivery ([3]; Replicate 2): 2; Hatching rate (%) ([4]; Replicate 1): 0.95%; Hatching rate (%) ([4]; Replicate 2): 1.15%; Hatching rate (%) ([4]; Replicate 3): 0.00%; Number of hatched larvae 5 days after insecticide delivery ([4]; Replicate 1): 1; Number of hatched larvae 5 days after insecticide delivery ([4]; Replicate 2): 1; Number of hatched larvae 5 days after insecticide delivery ([4]; Replicate 3): 0 |
| C[C@@H](COS(=O)OCCF)Oc1ccc(Cl)cc1Cl (stereo partly drawn) [1-(S,S)] | 50.88% | 38.98% | 28 | 36 | 0.00% | 9.72% | 70 | 65 | 0.00% | 0.00% | 75 | 68 | excellent inhibitory effects | strong inhibitory rate | 97.35% | 99.38% | 95.02% | 97.64% | strong inhibitory activities | strong inhibitory activities | Hatching rate (%) [3, 8]: 0.00%; Hatching rate (%) [3, 9]: 0.00%; Number of hatched larvae 5 days after insecticide delivery [3, 8]: 0; Number of hatched larvae 5 days after insecticide delivery [3, 9]: 0; Hatching rate (%) [4, 8]: 0.00%; Hatching rate (%) [4, 9]: 0.00%; Hatching rate (%) [4, 10]: 0.00%; Number of hatched larvae 5 days after insecticide delivery [4, 8]: 0; Number of hatched larvae 5 days after insecticide delivery [4, 9]: 0; Number of hatched larvae 5 days after insecticide delivery [4, 10]: 0 |
